# Experimental data published in ChEMBL document CHEMBL6078702, “Hypoxia-selective prodrug restrains tumor cells through triggering mitophagy and inducing apoptosis” (Eur J Med Chem, 2025).
# The source made the active and inactive calls. The calls are words filed in the database; no cut-off is given here.
# Legend:
# HepG2 [1] = assay: Cytotoxicity against human HepG2 cells under normoxia condition incubated for 48 hrs by MTT assay; assay type: functional, cell-based; conditions: HepG2, 48 h
# HeLa [2] = assay: Cytotoxicity against human HeLa cells under normoxia condition incubated for 48 hrs by MTT assay; assay type: functional, cell-based
# HeLa [3] = assay: Cytotoxicity against human HeLa cells under hypoxic condition incubated for 48 hrs by MTT assay; assay type: functional, cell-based
# HepG2 [4] = assay: Cytotoxicity against human HepG2 cells under hypoxic condition incubated for 48 hrs by MTT assay; assay type: functional, cell-based; conditions: HepG2, 48 h
# HeLa [5] = assay: Induction of mitophagy in human HeLa cells under hypoxic condition assessed as increase in ratio of LC3-II to LC3-I levels incubated for 24 hrs by Western blot analysis; assay type: functional, cell-based; conditions: dose 1-10 µM
# HeLa [6] = assay: Induction of apoptosis in human HeLa cells under hypoxic condition assessed as increase in cleaved caspase-3 level at 1 to 10 uM incubated for 48 hrs by Western blot analysis; assay type: functional, cell-based; conditions: dose 1-10 µM
# [7] = Acute toxicity in BALB/c nude mouse xenografted with human HeLa cells assessed as damage in kidney at 1000 mg/kg, ip by H and E staining based analysis; assay type: organism-based; conditions: in vivo
# HeLa [8] = assay: Induction of morphological change in mitochondria in human HeLa cells under hypoxic condition assessed as formation of multi-lamellar globules at 5 uM incubated for 48 hrs by TEM analysis; assay type: functional, cell-based
# HeLa [9] = assay: Induction of morphological change in mitochondria in human HeLa cells under hypoxic condition assessed as onion-like circle formation of cristae folds in inner membrane at 5 uM incubated for 48 hrs by TEM analysis; assay type: functional, cell-based
# HeLa [10] = assay: Induction of morphological damage in human HeLa cells under normoxia condition by Hoechst 33342 staining based analysis; assay type: functional, cell-based
# HeLa [11] = assay: Antitumor activity against human HeLa cells xenografted in BALB/c nude mouse at 50 mg/kg, ip qd for 14 days relative to control; assay type: functional; conditions: 336 h, time 14 day, read-out: TGI
# HeLa [12] = assay: Induction of apoptosis in human HeLa cells under hypoxic condition assessed as increase in cleaved PARP-1 level at 1 to 10 uM incubated for 48 hrs by Western blot analysis; assay type: functional, cell-based; conditions: dose 1-10 µM
# HeLa [13] = assay: Induction of morphological change in mitochondria in human HeLa cells under hypoxic condition assessed as disappearance of cristae at 5 to 10 uM incubated for 48 hrs by TEM analysis; assay type: functional, cell-based; conditions: dose 5-10 µM
# HeLa [14] = assay: Antitumor activity against human HeLa cells xenografted in BALB/c nude mouse assessed as tumor growth suppression at 25 to 50 mg/kg, ip qd for 14 days; assay type: functional, organism-based; conditions: dose 25-50 mg/kg, time 14.0 day
# HeLa [15] = assay: Induction of apoptosis in human HeLa cells under hypoxic condition assessed as early apoptotic cells at 5 uM incubated for 48 hrs by Annexin V-FITC/PI staining based flow cytometry (reference value: 0.60 %); assay type: functional
# HeLa [16] = assay: Induction of apoptosis in human HeLa cells under hypoxic condition assessed as late apoptotic cells at 5 uM incubated for 48 hrs by Annexin V-FITC/PI staining based flow cytometry (reference value: 0.10 %); assay type: functional
# HeLa [17] = assay: Induction of mitophagy in human HeLa cells under hypoxic condition assessed as co-localization of mitochondria and lysosomes at 5 uM incubated for 24 hrs by CLSM analysis; assay type: functional, cell-based
# HeLa [18] = assay: Induction of mitophagy in human HeLa cells under hypoxic condition assessed as encapsulation of mitochondria in vacuoles at 10 uM incubated for 48 hrs by TEM analysis; assay type: functional, cell-based
# [19] = Acute toxicity in BALB/c nude mouse xenografted with human HeLa cells assessed as damage in heart at 1000 mg/kg, ip by H and E staining based analysis; assay type: organism-based; conditions: in vivo
# HeLa [20] = assay: Induction of morphological change in mitochondria in human HeLa cells under hypoxic condition assessed as formation of vacuoles at 5 to 10 uM incubated for 48 hrs by TEM analysis; assay type: functional, cell-based; conditions: dose 5-10 µM
# HeLa [21] = assay: Induction of morphological damage in human HeLa cells under hypoxic condition by Hoechst 33342 staining based analysis; assay type: functional, cell-based
# [22] = Toxicity in BALB/c nude mouse xenografted with human HeLa cells assessed as body weight change at 25 to 50 mg/kg, ip qd for 14 days; assay type: organism-based; conditions: in vivo, 336 h, dose 25-50 mg/kg, time 14 day
# HeLa [23] = assay: Induction of apoptosis in human HeLa cells under hypoxic condition assessed as necrotic cells at 5 uM incubated for 48 hrs by Annexin V-FITC/PI staining based flow cytometry (reference value: 1.17 %); assay type: functional
# [24] = Acute toxicity in BALB/c nude mouse xenografted with human HeLa cells assessed as damage in spleen at 1000 mg/kg, ip by H and E staining based analysis; assay type: organism-based; conditions: in vivo
# HeLa [25] = assay: Antitumor activity against human HeLa cells xenografted in BALB/c nude mouse at 25 mg/kg, ip qd for 14 days relative to control; assay type: functional; conditions: 336 h, time 14 day, read-out: TGI
# HeLa [26] = assay: Induction of mitophagy in human HeLa cells under hypoxic condition assessed as decrease in p62 level incubated for 24 hrs by Western blot analysis; assay type: functional, cell-based; conditions: dose 1-10 µM
# [27] = Acute toxicity in BALB/c nude mouse xenografted with human HeLa cells assessed as damage in liver at 1000 mg/kg, ip by H and E staining based analysis; assay type: organism-based; conditions: in vivo
# HeLa [28] = assay: Induction of mitochondrial membrane potential dissipation in human HeLa cells under hypoxic condition at 5 uM incubated for 24 hrs by flow cytometry; assay type: functional, cell-based
# HeLa [29] = assay: Induction of morphological change in mitochondria in human HeLa cells under hypoxic condition assessed as increase in IMMT level at 5 uM incubated for 48 hrs by immunofluorescence based analysis; assay type: functional, cell-based
# HeLa [30] = assay: Induction of mitochondrial membrane potential dissipation in human HeLa cells under hypoxic condition assessed as accumulation of green fluorescence at 5 uM incubated for 24 hrs by JC-1 staining based CLSM analysis; assay type: functional, cell-based
# HeLa [31] = assay: Induction of apoptosis in human HeLa cells under hypoxic condition assessed as viable cells at 5 uM incubated for 48 hrs by Annexin V-FITC/PI staining based flow cytometry (reference value: 98.13 %); assay type: functional; conditions: read-out: Activity
# [32] = Acute toxicity in BALB/c nude mouse xenografted with human HeLa cells assessed as damage in lung at 1000 mg/kg, ip by H and E staining based analysis; assay type: organism-based; conditions: in vivo
# [33] = Toxicity in BALB/c nude mouse xenografted with human HeLa cells assessed as animal mortality at 25 to 50 mg/kg, ip qd for 14 days; assay type: organism-based; conditions: in vivo, dose 25-50 mg/kg, time 14 day
compound,measurement,setting,value
O=C(/C=C/c1cccc([N+](=O)[O-])c1)c1ccc(OCc2cn(CCCC[P+](c3ccccc3)(c3ccccc3)c3ccccc3)nn2)c(Br)c1,IC50,HepG2 [1],12.8 µM
same,IC50,HeLa [2],> 50 µM
same,IC50,HeLa [3],> 50 µM
same,IC50,HepG2 [4],26.5 µM
COc1ccc(/C=C/C(=O)c2ccc(OCc3cn(CCCC[P+](c4ccccc4)(c4ccccc4)c4ccccc4)nn3)c(Br)c2)cc1[N+](=O)[O-],IC50,HepG2 [1],21.6 µM
same,IC50,HeLa [2],10.7 µM
same,IC50,HeLa [3],> 50 µM
same,IC50,HepG2 [4],19.3 µM
COc1ccc(C(=O)/C=C/c2cccc([N+](=O)[O-])c2)cc1F,IC50,HepG2 [1],> 50 µM
same,Activity,HeLa [5],Active
same,Activity,HeLa [6],Active
same,Activity,[7],Non-toxic
same,IC50,HeLa [2],> 50 µM
same,Activity,HeLa [8],Active
same,Activity,HeLa [9],Active
same,Activity,HeLa [10],inactive
same,inhibition in vivo at 50 mg/kg,HeLa [11],57.4%
same,Activity,HeLa [12],Active
same,Activity,HeLa [13],Active
same,IC50,HeLa [3],3.3 µM
same,Activity,HeLa [14],Active
same,Activity,HeLa [15],10.21%
same,Activity,HeLa [16],63.25%
same,Activity,HeLa [17],Active
same,IC50,HepG2 [4],5 µM
same,Activity,HeLa [18],Active; Result Indicates That Mitochondria Were Removed From Cells Through Autophagosomes
same,Activity,[19],Non-toxic
same,Activity,HeLa [20],Active
same,Activity,HeLa [21],Active
same,Activity,[22],Non-toxic
same,Activity,HeLa [23],7.74%
same,Activity,[24],Non-toxic
same,inhibition in vivo at 25 mg/kg,HeLa [25],30.3%
same,Activity,HeLa [26],Active
same,Activity,[27],Non-toxic
same,Activity,HeLa [28],Active
same,Activity,HeLa [29],Active
same,Activity,HeLa [30],Active
same,viability at 5 µM,HeLa [31],18.8%
same,Activity,[32],Non-toxic
COc1ccc(C(=O)/C=C/c2ccc(OC)c([N+](=O)[O-])c2)cc1F,IC50,HepG2 [1],> 50 µM
same,IC50,HeLa [2],> 100 µM
same,IC50,HeLa [3],> 50 µM
same,IC50,HepG2 [4],23.1 µM
COc1ccc(C(=O)/C=C/c2ccc(OC)c([N+](=O)[O-])c2)cc1Br,IC50,HepG2 [1],> 50 µM
same,IC50,HeLa [2],> 100 µM
same,IC50,HeLa [3],15.1 µM
same,IC50,HepG2 [4],15.4 µM
COc1ccc(C(=O)/C=C/c2cccc(N)c2)cc1F,mortality at 336 h,[33],50%
same,Activity,[27],Non-toxic
same,Activity,[32],Non-toxic
